Measurements taken from patent US7897772B2, “Acid addition salt of irinotecan” (priority 2004, dated 2011).
Counter-ions that a name gives are not always drawn.

Legend:
[1] = Dissolution of irinotecan acid addition salts in water at 100 mg/mL at room temperature and state of the solution after 6 days of stirring (Example 1); assay type: physicochemical; conditions: for Dissolution of the salt in water at room temperature: salt content adjusted to 100 mg/mL, no heating; for State of the Solution after Day 6: 100 mg/mL aqueous solution, membrane-filtered, stirred at room temperature (25° C.) for 6 days, visually observed
Method: To an aqueous suspension of irinotecan (1-ethyl-10-[4-(1-piperidino)-1-piperidino]carbonyloxycamptothecin) produced through the method disclosed in Patent Document 1, each acid species was added, to thereby produce a corresponding irinotecan acid addition salt. The irinotecan acid addition salt content was adjusted to 100 mg/mL. […] Each of the aqueous solutions employing sulfuric acid, phosphoric acid methanesulfonic acid, citric acid, maleic acid, and succinic acid, respectively, was filtered by a membrane filter, and the filtrate was stirred at room temperature (25° C.). After continuous stirring for 6 days, the aqueous solution was visually observed so as to evaluate the state of the solution.

[2] = Peroral absorbability in beagles: plasma irinotecan level and pharmacokinetic analysis (Example 6); assay type: in vivo
Excerpt: To each beagle, a solid chow (about 350 g) was fed once a day at around 3 p.m., and the unconsumed chow was removed at around 9 a.m. on the following day, except that on the day before the day of administration the unconsumed chow was removed about two hours after feeding. On the day of administration, blood was drawn three hours after administration and the chow was fed after blood collection. On the day after the day of administration, the unconsumed chow was removed at 9 a.m.
After administration, tap water (about 20 mL) was fed to the mouth of the beagle by use of an injection syringe.
The thus-collected blood samples were dispensed into 1.5-mL tubes, to which heparin sodium (20 μL, 20 units) had been added in advance and which had been dried under nitrogen flow (tubes employed for the first administration were not dried). The samples were centrifuged (4° C., about 13,000×g, one minute) to thereby obtain plasma.
The lower quantification limit was […] plasma.
Non-compartmental analysis of the obtained data was performed by use of a WinNonlin Ver4.1. Data of the following pharmacokinetic parameters were obtained.
Final phase half-time (T1/2),
Time to reach maximum plasma level (Tmax),
Maximum plasma level (Cmax),
Area under time-level curve to infinite time (AUC0-inf),
Bioavailability (BA), wherein
Mean absorption time (MAT), wherein
MAT(h)=(mean residence time (MRT0-inf) after oral administration)−(mean residence time (MRT0-inf) after intravenous injection).

[3] = Dissolution of 100 mg/mL salt suspensions on heating and later crystal deposition at 25° C. (Example 2); assay type: physicochemical; conditions: 100 mg/mL, stirred at 100° C. for 30 minutes
Method: The thus-produced irinotecan nitric acid addition salt solution was stirred at 25° C. After stirring of the solution for about 42 hours, crystals of the irinotecan nitric acid addition salt were deposited.

[4] = Three-month room-temperature storage of 20, 30 and 40 mg/mL aqueous solutions, visual observation (Example 5); assay type: physicochemical; conditions: three months
Excerpt: The filtrate was allowed to stand at room temperature for three months, and the aqueous solution after storage was visually observed so as to evaluate the solution state.

[5] = peroral capsule, 10 mg/kg as irinotecan, 20 min after administration
[6] = peroral, 10 mg/kg as irinotecan
[7] = peroral, 10 mg/kg as irinotecan, mean ± SD (number of samples in parentheses), 10 mg/kg
[8] = peroral, 10 mg/kg as irinotecan, mean ± SD (number of samples in parentheses), listed as irinotecan methanesulfonic acid addition salt, 10 mg/kg
[9] = peroral, 10 mg/kg as irinotecan, mean ± SD (number of samples in parentheses), listed as irinotecan sulfuric acid addition salt, 10 mg/kg

With `CCc1c2c(nc3ccc(OC(=O)N4CCC(N5CCCCC5)CC4)cc13)-c1cc3c(c(=O)n1C2)COC(=O)[C@]3(O)CC` [Irinotecan (7-ethyl-10-[4-(1-piperidino)-1-piperidino]carboxyoxycamptothecin) hydrochloride, reference compound] the “Dissolution of the salt in water at room temperature” value (“Dissolution of the salt in water” for short) ([1]; listed as hydrochloric acid, hydrochloride) was “not dissolved in water at room temperature”, the concentration at 3 h ([2]; male, beagle, dog, plasma, oral, 10 mg/kg, peroral, 10 mg/kg as irinotecan, 3 h, mean (n=6) ± SD) was 2010 ± 450 ng/mL and the concentration at 4 h ([2]; male, beagle, dog, plasma, oral, 10 mg/kg, peroral, 10 mg/kg as irinotecan, 4 h, mean (n=6) ± SD) was 1620 ± 390 ng/mL. The concentration at 6 h ([2]; male, beagle, dog, plasma, oral, 10 mg/kg, peroral, 10 mg/kg as irinotecan, 6 h, mean (n=6) ± SD) was 947 ± 363 ng/mL, the concentration at 8 h ([2]; male, beagle, dog, plasma, oral, 10 mg/kg, peroral, 10 mg/kg as irinotecan, 8 h, mean (n=6) ± SD) was 538 ± 264 ng/mL and the concentration at 12 h ([2]; male, beagle, dog, plasma, oral, 10 mg/kg, peroral, 10 mg/kg as irinotecan, 12 h, mean (n=6) ± SD) was 179 ± 138 ng/mL. The AUC(0-inf) ([2]; male, beagle, dog, plasma, po, 10 mg/kg, peroral, 10 mg/kg as irinotecan, mean ± SD (number of samples in parentheses), read-out: AUC0-inf (area under time-level curve to infinite time)) was 11200 ng·h/mL, the Cmax ([2]; male, beagle, dog, plasma, po, 10 mg/kg, peroral, 10 mg/kg as irinotecan, mean ± SD (number of samples in parentheses), read-out: Cmax (maximum plasma level)) was 2030 ng/mL and the Tmax ([2]; male, beagle, dog, plasma, po, 10 mg/kg, peroral, 10 mg/kg as irinotecan, mean ± SD (number of samples in parentheses), read-out: Tmax (time to reach maximum plasma level)) was 2.83 ± 0.41 h. The “BA (bioavailability)” value ([2]; peroral 10 mg/kg as irinotecan, AUC0-inf oral ÷ AUC0-inf intravenous × 100, listed as irinotecan hydrochloric acid addition salt, hydrochloride) was 48.80%, the “Plasma irinotecan level (no mean given)” value ([2]; peroral capsule, 10 mg/kg as irinotecan, 10 min after administration, hydrochloride, 10 mg/kg) was “—^b) (≧3 Beagles of a group consisting of six beagles exhibited a plasma level of ≦5 ng/mL.)” and the “Plasma irinotecan level (no mean given)” value [2, 5] was “— (≧3 Beagles of a group consisting of six beagles exhibited a plasma level of ≦5 ng/mL.)”.
For `CCc1c2c(nc3ccc(OC(=O)N4CCC(N5CCCCC5)CC4)cc13)-c1cc3c(c(=O)n1C2)COC(=O)[C@]3(O)CC` [Irinotecan acetic acid addition salt, reference compound], the “Dissolution of the salt in water” value ([1]; listed as acetic acid) was “not dissolved in water at room temperature” and the Dissolution on heating [3] was “maintained undissolved”.
With `CCc1c2c(nc3ccc(OC(=O)N4CCC(N5CCCCC5)CC4)cc13)-c1cc3c(c(=O)n1C2)COC(=O)[C@]3(O)CC` [Irinotecan citric acid addition salt, irinotecan citric acid salt] the “State of the Solution after Day 6” value [1] was “No crystal deposited” and the “Dissolution of the salt in water” value ([1]; listed as citric acid) was “dissolved in water at room temperature”.
In the case of `CCc1c2c(nc3ccc(OC(=O)N4CCC(N5CCCCC5)CC4)cc13)-c1cc3c(c(=O)n1C2)COC(=O)[C@]3(O)CC` [Irinotecan fumaric acid addition salt, reference compound], the “Dissolution of the salt in water” value ([1]; listed as fumaric acid) is reported as “not dissolved in water at room temperature”.
In the case of `CCc1c2c(nc3ccc(OC(=O)N4CCC(N5CCCCC5)CC4)cc13)-c1cc3c(c(=O)n1C2)COC(=O)[C@]3(O)CC` [Irinotecan maleic acid addition salt, irinotecan maleic acid salt], the “Dissolution of the salt in water” value ([1]; listed as maleic acid) is reported as “dissolved in water at room temperature”.
In the case of `CCc1c2c(nc3ccc(OC(=O)N4CCC(N5CCCCC5)CC4)cc13)-c1cc3c(c(=O)n1C2)COC(=O)[C@]3(O)CC` [Irinotecan methanesulfonic acid addition salt] [irinotecan methanesulfonic acid salt], the “State of the Solution after Day 6” value [1] is reported as “No crystal deposited”, the “Dissolution of the salt in water” value [1] is reported as “dissolved in water at room temperature” and the “Plasma irinotecan level (no mean given)” value ([2]; peroral capsule, 10 mg/kg as irinotecan, 10 min after administration, 10 mg/kg) is reported as “— (≧3 Beagles of a group consisting of six beagles exhibited a plasma level of ≦5 ng/mL.)”. The “Plasma irinotecan level (no mean given)” value [2, 5] was “— (≧3 Beagles of a group consisting of six beagles exhibited a plasma level of ≦5 ng/mL.)”, the “Time after administration at which the plasma level reached the maximum (mean profile, text)” value [2, 6] was “two” and the “AUC0-inf (area under time-level curve to infinite time)” value (shortened to “AUC0-inf”) [2, 7] was 17.58 ± 2.08(5)^$ μg · h/mL. The “Tmax (time to reach maximum plasma level)” value [2, 7] was 2.17 ± 0.41(6) h, the “AUC0-inf” value [2, 8] was 17.68 µg·h/mL and the “Cmax (maximum plasma level)” value [2, 8] was 3470 ng/mL.
In the case of `CCc1c2c(nc3ccc(OC(=O)N4CCC(N5CCCCC5)CC4)cc13)-c1cc3c(c(=O)n1C2)COC(=O)[C@]3(O)CC` [Irinotecan phosphoric acid addition salt, irinotecan phosphoric acid salt], the “Dissolution of the salt in water” value ([1]; listed as phosphoric acid) is reported as “dissolved in water at room temperature”.
With `CCc1c2c(nc3ccc(OC(=O)N4CCC(N5CCCCC5)CC4)cc13)-c1cc3c(c(=O)n1C2)COC(=O)[C@]3(O)CC` [Irinotecan succinic acid addition salt, irinotecan succinic acid salt] the “Dissolution of the salt in water” value ([1]; listed as succinic acid) was “dissolved in water at room temperature”.
In the case of `CCc1c2c(nc3ccc(OC(=O)N4CCC(N5CCCCC5)CC4)cc13)-c1cc3c(c(=O)n1C2)COC(=O)[C@]3(O)CC` [Irinotecan sulfuric acid addition salt, irinotecan sulfuric acid salt], the “State of the Solution after Day 6” value [1] is reported as “No crystal deposited”, the “Dissolution of the salt in water” value [1] is reported as “dissolved in water at room temperature” and the concentration at 10 min ([2]; male, beagle, dog, plasma, oral, 10 mg/kg, peroral capsule, 10 mg/kg as irinotecan, 10 min after administration, mean (n=6) ± SD) is reported as 126 ± 112 ng/mL. For the same molecule, the concentration at 20 min ([2]; male, beagle, dog, plasma, oral, 10 mg/kg, peroral capsule, 10 mg/kg as irinotecan, 20 min after administration, mean (n=6) ± SD) was 1560 ± 1550 ng/mL, the concentration at 20 min ([2]; male, beagle, dog, plasma, oral, 10 mg/kg, peroral, 10 mg/kg as irinotecan, twenty minutes after administration) was 1560 ng/mL and the “BA (bioavailability)” value ([2]; peroral 10 mg/kg as irinotecan, AUC0-inf oral ÷ AUC0-inf intravenous × 100) was 70.14%. The “Time after administration at which the plasma level became measurable” value [2, 6] was 10 min, the “Plasma irinotecan level maintained” value ([2]; peroral, 10 mg/kg as irinotecan, from hour 1 to hour 3) was at least 3 µg/mL and the “AUC0-inf” value [2, 7] was 18.54 ± 1.59(5)^$ μg · h/mL. For the same molecule, the “Tmax (time to reach maximum plasma level)” value [2, 7] was 2.33 ± 0.52(6) h, the “AUC0-inf” value [2, 9] was 13.54 µg·h/mL and the “Cmax (maximum plasma level)” value [2, 9] was 3670 ng/mL.
With `CCc1c2c(nc3ccc(OC(=O)N4CCC(N5CCCCC5)CC4)cc13)-c1cc3c(c(=O)n1C2)COC(=O)[C@]3(O)CC.O=[N+]([O-])O` [Nitric acid addition salt (1), irinotecan nitric acid salt] the “Solution state after storage” value ([4]; 20 mg/mL aqueous solution) was “−”, the “Solution state after storage” value ([4]; 30 mg/mL aqueous solution) was “−” and the “Solution state after storage” value ([4]; 40 mg/mL aqueous solution) was “+”.
For `CCc1c2c(nc3ccc(OC(=O)N4CCC(N5CCCCC5)CC4)cc13)-c1cc3c(c(=O)n1C2)COC(=O)[C@]3(O)CC.O=[N+]([O-])O` [Nitric acid addition salt (2), irinotecan nitric acid salt], the “Solution state after storage” value ([4]; 20 mg/mL aqueous solution) was “−”, the “Solution state after storage” value ([4]; 30 mg/mL aqueous solution) was “−” and the “Solution state after storage” value ([4]; 40 mg/mL aqueous solution) was “−”.
For `CCc1c2c(nc3ccc(OC(=O)N4CCC(N5CCCCC5)CC4)cc13)-c1cc3c(c(=O)n1C2)COC(=O)[C@]3(O)CC.O=P(O)(O)O` [Phosphoric acid addition salt (2), irinotecan phosphoric acid salt], the “Solution state after storage” value ([4]; 20 mg/mL aqueous solution) was “−”, the “Solution state after storage” value ([4]; 30 mg/mL aqueous solution) was “−” and the “Solution state after storage” value ([4]; 40 mg/mL aqueous solution) was “−”.
With `CCc1c2c(nc3ccc(OC(=O)N4CCC(N5CCCCC5)CC4)cc13)-c1cc3c(c(=O)n1C2)COC(=O)C3(O)CC.O=S(=O)(O)O` (stereo not drawn) [Sulfuric acid addition salt (2), irinotecan sulfuric acid salt] the “Solution state after storage” value ([4]; 20 mg/mL aqueous solution) was “−”, the “Solution state after storage” value ([4]; 30 mg/mL aqueous solution) was “−” and the “Solution state after storage” value ([4]; 40 mg/mL aqueous solution) was “−”.
`CCc1c2c(nc3ccc(OC(=O)N4CCC(N5CCCCC5)CC4)cc13)-c1cc3c(c(=O)n1C2)COC(=O)[C@]3(O)CC` [irinotecan methanesulfonic acid salt] showed a bioavailability ([2]; male, beagle, dog, plasma, po, 10 mg/kg, peroral 10 mg/kg as irinotecan, AUC0-inf oral ÷ AUC0-inf intravenous × 100, read-out: BA (bioavailability)) of 61 ± 3.84%.
